For series [1], the target named is HER-2 kinase (Homo sapiens, UniProt P04626). Kind of series: HER-2 kinase activity assay (time-resolved fluorescence). Format: biochemical. The settings on record: table of the HER-2 kinase activity assay; human-derived recombinant HER-2 kinase, 20 μM ATP, 25° C., 45 minutes; read-out: IC50 (HER-2/SK-BR-3). Here is the method: The in vitro HER-2 kinase activity was tested by the following assay.
The following assay was used to determine the activity of the compounds of the present invention for inhibiting HER-2 kinase. The half maximal inhibitory concentration IC50 (the concentration of the test compound showing 50% inhibition of the enzyme activity) of each compound was determined by incubating several different concentrations of the test compounds with a specific enzyme and substrate. […] The HER-2 kinase activity was determined by using a time-resolved fluorescence method.

Series [2] concerns human epidermoid carcinoma A431 cells, which have high expression of EGFR. The series is described as follows: EGFR cell proliferation inhibition assay (SRB, 72 hours). Format: cell-based. The settings on record: Homo sapiens, A-431, 72 h, read-out: IC50 (EGFR/A431). Here is the method: The activity is represented by the IC50 value. The general procedures of the assay were as follows: the cancer cells A431 highly expressing EGFR were chosen and seeded in a 96-well cell culture plate at a suitable density (e.g., 5000 cells/mL medium). The cells were then incubated in a carbon dioxide incubator until they reached 85% confluence. Then, the cell culture medium was replaced by fresh medium containing the test compounds with serial dilutions (general 6 to 7 concentrations). The cells were put back in the incubator and cultured continuously for 72 hours. The activity of the test compounds for inhibiting the cell proliferation was determined by using a Sulforhodamine B (SRB) method. IC50 values were calculated by the rate of inhibition at various concentrations of the test compounds.

The nature of series [3]: Solubility assay. Format: physicochemical. Here is the method: According to the conventional solubility measurement, the solubility of a compound of formula (I) and salts thereof was determined in three different systems: water, physiological saline and methanol.
Series [4] is described as follows: Pharmacokinetics assay in rats (LC/MS/MS of plasma). Format: in vivo, Sprague Dawley (SD) rats. The settings on record: rat; for Vd/F: read-out: Vz/F. Here is the method: The rats were used as test animals. The compound of formula (I) and other salts thereof were administrated intragastrically, and a maleate salt of the compound of formula (I) was injected into the tail vein to determine the drug concentration in plasma at different time points by an LC/MS/MS method. The pharmacokinetic behavior, characteristics and the oral absolute bioavailability of the present compounds were studied and evaluated in rats. […] 28 healthy adult Sprague Dawley (SD) rats, half male and half female, were purchased from SINO-BRITSH SIPPR/BK LAB. ANIMAL LTD., CO, License number: SCXK (Shanghai) 2008-0016, and divided into 7 groups (4 rats in each group). The intravenous injection group: a suitable amount of compounds was weighed, dissolved in DMSO and diluted with normal saline to the final volume. […] healthy adult SD rats, half male and half female, were divided into 7 groups (4 rats in each group). […] For the intravenous injection group, blood samples (0.2 mL) were taken from orbital sinus before administration and at 2 min, 15 min, 30 min, 1.0 […] and 36.0 h after administration, stored in heparinized tubes and centrifuged for 10 minutes at 3,500 rpm to separate blood plasma. The plasma samples were stored at -20° C. For the intragastrical administration group, blood samples were taken before administration and at 0.5, 1.0, 2.0, 3.0, 4.0, 6.0, 8.0, 12.0, 24.0 and 36.0 hours after administration. The method to treat the samples was the same as with the intravenous injection group. The rats were fed 2 hours after administration.

Series [5] is described as follows: Solubility assay. It is filed as physicochemical. This is another data set of the same source.
Series [6] relates to human carcinoma SK-BR-3 cells, which have high expression of HER-2. Kind of series: HER-2 cell activity assay (SRB, 96 hours). It is filed as cell-based. The source says: The following in vitro assay was to determine the activity of the compounds of the present invention for inhibiting the proliferation of human carcinoma SK-BR-3 cells, which have high expression of HER-2.
The following in vitro assay was to determine the activity of the test compounds for inhibiting the angiogenesis and proliferation of cancer cells, which have high expression of HER-2. The activity is represented by the IC50 value. The general procedure of the assay was as follows: the cancer cells line SK-BR-3 highly expressing HER-2 was chosen and the cells were seeded in a 96-well cell culture plate at a suitable density. The cells then were incubated in a carbon dioxide incubator until they reached 60% confluence. Then, the cell culture medium was replaced by fresh medium with the test compounds at various concentrations (6 to 7 concentrations). The cells were put back in the incubator and cultured continuously for 96 hours. The activity of the test compounds for inhibiting the cell proliferation was determined by using a Sulforhodamine B (SRB) method. IC50 values of test cells were calculated by the rate of inhibition at various concentrations of the test compounds.

Setting [7] is: both sexes, Sprague-Dawley, plasma, po, 25 mg/kg, gavage.
[8] abbreviates: both sexes, Sprague-Dawley, plasma, po, 25 mg/kg, gavage, read-out: AUC0-t.
[9] abbreviates: both sexes, Sprague-Dawley, plasma, po, 25 mg/kg, gavage, read-out: Cmax.
[10] abbreviates: both sexes, Sprague-Dawley, plasma, po, 25 mg/kg, gavage, read-out: MRT.
Setting [11] is: vein (tail vein injection), 25 mg/kg, dimaleate.
Where [12] appears, read: vein (tail vein injection), 25 mg/kg.
The mark [13] stands for this setting: gavage, 25 mg/kg, dimethanesulfonate.
Where [14] appears, read: vein (tail vein injection), 25 mg/kg, dimethanesulfonate.
The mark [15] stands for this setting: gavage, 25 mg/kg, trimethanesulphonate.
The mark [16] stands for this setting: vein (tail vein injection), 25 mg/kg, trimethanesulphonate.
Where [17] appears, read: both sexes, Sprague-Dawley, plasma, iv, 25 mg/kg, vein (tail vein injection).
[18] abbreviates: both sexes, Sprague-Dawley, plasma, iv, 25 mg/kg, vein (tail vein injection), read-out: AUC0-t.
The mark [19] stands for this setting: both sexes, Sprague-Dawley, plasma, iv, 25 mg/kg, vein (tail vein injection), read-out: MRT.

Structures are written as SMILES. ≈ marks a conversion by molar mass, not a printed value. Where two headings read alike, the source gives them in different places.

A word on the CL/F: it is the apparent clearance, not corrected for the fraction that reaches the circulation. As a reminder, the half-life is the time in which the quantity being followed falls by half. Usually Cmax stands for the highest concentration seen after dosing. For orientation: MRT means a mean duration of stay, worked out from the concentration-time curve. What is called bioavailability is dose-corrected exposure relative to a reference, in per cent. One may read the solubility as the dissolved amount per volume that the medium holds.

Chain of HER-2 kinase (P04626 23-1255): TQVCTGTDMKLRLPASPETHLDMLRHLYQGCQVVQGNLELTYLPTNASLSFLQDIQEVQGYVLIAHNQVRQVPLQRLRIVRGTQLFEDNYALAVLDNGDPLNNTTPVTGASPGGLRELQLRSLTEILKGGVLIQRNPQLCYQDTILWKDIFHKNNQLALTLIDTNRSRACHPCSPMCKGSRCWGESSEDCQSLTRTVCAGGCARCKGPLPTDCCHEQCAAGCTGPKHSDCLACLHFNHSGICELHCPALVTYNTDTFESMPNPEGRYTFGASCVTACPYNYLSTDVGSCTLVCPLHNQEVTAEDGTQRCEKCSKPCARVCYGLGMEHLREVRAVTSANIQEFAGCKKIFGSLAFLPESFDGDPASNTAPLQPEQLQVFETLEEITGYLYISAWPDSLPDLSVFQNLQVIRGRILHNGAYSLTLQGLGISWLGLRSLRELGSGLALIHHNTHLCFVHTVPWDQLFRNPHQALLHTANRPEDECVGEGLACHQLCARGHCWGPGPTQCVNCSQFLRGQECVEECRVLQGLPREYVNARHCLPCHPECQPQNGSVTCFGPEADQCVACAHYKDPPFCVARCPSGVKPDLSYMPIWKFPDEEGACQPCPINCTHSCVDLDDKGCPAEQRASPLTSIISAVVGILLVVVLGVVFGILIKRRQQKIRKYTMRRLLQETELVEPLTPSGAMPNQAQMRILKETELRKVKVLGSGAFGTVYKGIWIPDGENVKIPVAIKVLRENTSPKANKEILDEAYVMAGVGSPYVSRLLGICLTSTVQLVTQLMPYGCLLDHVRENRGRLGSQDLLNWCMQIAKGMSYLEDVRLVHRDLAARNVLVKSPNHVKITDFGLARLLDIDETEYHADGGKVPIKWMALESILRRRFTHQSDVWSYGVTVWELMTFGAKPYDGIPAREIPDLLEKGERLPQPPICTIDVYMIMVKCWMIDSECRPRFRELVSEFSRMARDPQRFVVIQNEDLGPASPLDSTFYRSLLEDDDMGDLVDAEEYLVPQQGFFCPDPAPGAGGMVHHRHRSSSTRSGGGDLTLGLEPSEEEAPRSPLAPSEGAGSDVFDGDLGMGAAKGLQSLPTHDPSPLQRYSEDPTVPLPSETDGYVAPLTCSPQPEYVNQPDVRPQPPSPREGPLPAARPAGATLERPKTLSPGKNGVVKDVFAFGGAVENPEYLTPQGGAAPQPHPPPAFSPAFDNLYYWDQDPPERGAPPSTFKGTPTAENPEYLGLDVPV

For `CCOc1cc2ncc(C#N)c(Nc3ccc(OCc4ccccn4)c(Cl)c3)c2cc1NC(=O)/C=C/[C@H]1CCCN1C.O=C(O)/C=C\C(=O)O` [Example 2, (E)-N-[4-[[3-chloro-4-(2-pyridylmethoxy)phenyl]amino]-3-cyano-7-ethoxy-6-quinolyl]-3-[(2R)-1-methylpyrrolidin-2-yl]prop-2-enamide dimaleate], in series [1], the IC50 turned out to be 28 nM. In addition, the IC50 in series [2] worked out at 31 nM. Further, in series [3] (dimaleate), the “Solubility Value, Water” value is recorded as 1.52 mg/mL. Also, in series [4] (setting [7]), the CL/F was 4.83 mL/min/kg, the half-life was 267 ± 97.8 min and the Vd/F came to 1.84 ± 1.19 L/kg. Also, the AUC(0-t) in series [4] (setting [8]) came to 116 ± 67.2 µg·h/mL. In addition, in series [4] (setting [9]), the Cmax came out at 10.2 ± 4.41 µg/mL. For the same molecule, in series [4] (setting [10]), the MRT amounted to 8.03 ± 0.99 h. In addition, the bioavailability in series [4] (both sexes, Sprague-Dawley, plasma, po, 25 mg/kg, oral absolute bioavailability, 25 mg/kg (calculated by the base part)) was 48.3%. In series [4] (setting [11]), the MRT is 2.96 ± 0.47 h and the t1/2 was determined as 3.74 ± 1.20 h. Also, in series [5] (dimaleate), the “Solubility Value, 0.1M Hydrochloric acid” value came out at 54.88 mg/mL and the “Solubility Value, Physiological saline” value turned out to be 0.36 mg/mL.

As to `CCOc1cc2ncc(C#N)c(Nc3ccc(OCc4ccccn4)c(Cl)c3)c2cc1NC(=O)/C=C/[C@H]1CCCN1C` [Example 1f, (E)-N-[4-[[3-chloro-4-(2-pyridylmethoxy)phenyl]amino]-3-cyano-7-ethoxy-6-quinolyl]-3-[(2R)-1-methylpyrrolidin-2-yl]prop-2-enamide], the IC50 in series [1] came out at 65 nM. Further, in series [3], the “Solubility Value, Water” value was determined as 0.008 mg/mL (≈ 13.7 µM). Further, the AUC(0-t) in series [4] (gavage, 25 mg/kg) worked out at 52.81 ± 23.59 µg·h/mL. Also, in series [4] (oral absolute bioavailability, 25 mg/kg (calculated by the base part)), the “F (%)” value is reported as 42.2%. In series [4] (setting [12]), the AUC(0-t) stood at 125.4 ± 38.95 µg·h/mL, the MRT was determined as 4.22 ± 0.71 h and the t1/2 is 5.25 ± 2.01 h. In addition, the IC50 in series [6] (Homo sapiens, SK-BR-3, 96 h, read-out: IC50 (HER-2/SK-BR-3)) stood at 59 nM. Besides, in series [5], the “Solubility Value, 0.1M Hydrochloric acid” value is recorded as 1.43 mg/mL (≈ 2450 µM) and the “Solubility Value, Physiological saline” value is 0.0026 mg/mL. Further, the “solubility in conventional solvents (in words)” value in series [5] (conventional solvents) was “poorly soluble”.

In series [4] (setting [13]), `CCOc1cc2ncc(C#N)c(Nc3ccc(OCc4ccccn4)c(Cl)c3)c2cc1NC(=O)/C=C/[C@H]1CCCN1C.CS(=O)(=O)O` [Example 5, (E)-N-[4-[[3-chloro-4-(2-pyridylmethoxy)phenyl]amino]-3-cyano-7-ethoxy-6-quinolyl]-3-[(2R)-1-methylpyrrolidin-2-yl]prop-2-enamide dimethanesulfonate] showed an AUC(0-t) of 81.53 ± 40.46 µg·h/mL, a Cmax of 7.88 ± 2.51 µg/mL, an MRT of 7.95 ± 0.61 h and a t1/2 of 3.46 ± 0.56 h. In series [4] (oral absolute bioavailability, 25 mg/kg (calculated by the base part), dimethanesulfonate), the “F (%)” value is on record as 72.1%. Besides, in series [4] (setting [14]), the AUC(0-t) was 112.84 ± 62.1 µg·h/mL, the mean residence time MRT was found to be 4.2 ± 0.99 h and the t1/2 amounted to 3.12 ± 0.37 h.

In series [4] (setting [15]), `CCOc1cc2ncc(C#N)c(Nc3ccc(OCc4ccccn4)c(Cl)c3)c2cc1NC(=O)/C=C/[C@H]1CCCN1C.CS(=O)(=O)O` [Example 6, (E)-N-[4-[[3-chloro-4-(2-pyridylmethoxy)phenyl]amino]-3-cyano-7-ethoxy-6-quinolyl]-3-[(2R)-1-methylpyrrolidin-2-yl]prop-2-enamide trimethanesulphonate] yielded an AUC(0-t) of 81.72 ± 22.16 µg·h/mL, a Cmax of 6.27 ± 1.58 µg/mL, an MRT of 8.59 ± 0.22 h and a t1/2 of 4.15 ± 0.09 h. Besides, the “F (%)” value in series [4] (oral absolute bioavailability, 25 mg/kg (calculated by the base part), trimethanesulphonate) was 50.5%. Further, in series [4] (setting [16]), the AUC(0-t) turned out to be 162.28 ± 55.65 µg·h/mL, the MRT stood at 4.94 ± 0.58 h and the t1/2 is reported as 5.27 ± 0.29 h.

`CCOc1cc2ncc(C#N)c(Nc3ccc(OCc4ccccn4)c(Cl)c3)c2cc1NC(=O)/C=C/[C@H]1CCCN1C.CS(=O)(=O)O` [Example 4, (E)-N-[4-[[3-chloro-4-(2-pyridylmethoxy)phenyl]amino]-3-cyano-7-ethoxy-6-quinolyl]-3-[(2R)-1-methylpyrrolidin-2-yl]prop-2-enamide methanesulfonate]: the figures for the half-life in series [4] (setting [17]) and in series [4] (setting [7]) were 226 ± 13.2 min and 220 ± 49.8 min, respectively. The AUC(0-t) in series [4] (setting [18]) worked out at 146 ± 40.4 µg·h/mL; in series [4] (setting [8]), 92.3 ± 37 µg·h/mL. In addition, the MRT amounted to 5.46 ± 0.48 h in series [4] (setting [19]) and 8.4 ± 0.65 h in series [4] (setting [10]). This molecule gave a CL/F in series [4] (setting [7]) of 5.33 mL/min/kg. Further, the Cmax in series [4] (setting [9]) came out at 6.92 ± 1.82 µg/mL. The Vd/F in series [4] (setting [7]) is 1.6 ± 0.54 L/kg. In series [4] (oral absolute bioavailability, 25 mg/kg (calculated by the base part), methanesulfonate), the “F (%)” value is on record as 63.2%.

With `CCOc1cc2ncc(C#N)c(Nc3ccc(OCc4ccccn4)c(Cl)c3)c2cc1NC(=O)/C=C/[C@H]1CCCN1C.O=C(O)/C=C\C(=O)O` [Example 1, (E)-N-[4-[[3-chloro-4-(2-pyridylmethoxy)phenyl]amino]-3-cyano-7-ethoxy-6-quinolyl]-3-[(2R)-1-methylpyrrolidin-2-yl]prop-2-enamide maleate], the IC50 in series [1] is 53 nM. Further, the solubility in series [3] (physiological saline, saline or isotonic, physiological saline, read-out: Solubility Value, Physiological saline) turned out to be 190 µg/mL. In series [4] (setting [17]), this molecule gave a half-life of 295 ± 36 min. In addition, in series [4] (setting [18]), the AUC(0-t) worked out at 222 ± 77 µg·h/mL. Also, the mean residence time (MRT) in series [4] (setting [19]) stood at 5.5 ± 0.99 h. In series [4] (gavage, 25 mg/kg, maleate), this molecule returned an AUC(0-t) of 104.58 ± 56.54 µg·h/mL, a Cmax of 8.99 ± 4.87 µg/mL, an MRT of 8.93 ± 1.39 h and a t1/2 of 4.4 ± 1.3 h. Also, in series [4] (oral absolute bioavailability, 25 mg/kg (calculated by the base part), maleate), the “F (%)” value is reported as 47.1%. Moreover, the IC50 in series [6] (read-out: IC50 (HER-2/SK-BR-3), maleate) came out at 64 nM. The “Solubility Value, 0.1M Hydrochloric acid” value in series [5] (maleate) amounted to 23.33 mg/mL. Moreover, the “Solubility Value, Water” value in series [5] (water, maleate) is 12.49 mg/mL.
